Series [1] can be described thus: HPLC assay of lactone ring hydrolysis, free in PBS or associated with liposomes or micelles. The format is physicochemical. Conditions: for carboxylate/lactone ratio (C/L) free drug: final equilibrium; for t1/2 free drug: lactone hydrolysis; for duration of stability when bound to liposomes / lactone hydrolysis when associated with liposomes: DMPC and DMPG liposomes; for duration of stability when bound to liposomes: 0.29M lipid; for C/L drug DMPC Lip. / t1/2 drug DMPC Lip.: DMPC liposomes; for C/L drug DMPG Lip. / t1/2 drug DMPG Lip.: DMPG liposomes; for effect of liposome lysis by sonication: 5 minutes sonication; for biologically active (lactone) form present after 48 hours: associated with DMPC or DMPG liposomes. As for the experimental part:
A high performance liquid chromatography assay was used to determine the rate of hydrolysis of camptothecin and topotecan free in aqueous solution and to compare such rates with the rate of hydrolysis for the same drugs when bound to the DMPG and DMPC liposome membranes. The assay was conducted under near physiological conditions; the pH was 7.4, the temperature was 37° C. and the ionic strength was physiological. A Spectroflow model 980 fluorescence detector coupled to an HP 3392A integrator which acquired and processed the chromatograms, was used. For camptothecin, an Ultrasphere ODS C-18 250 mm long column was used. The mobile phase consisted of 32% acetonitrile, 67% 0.1M acetate buffer, pH 5.5, and 1% 01.M sodium dodecylsulfate at a flow rate of 1 mL/min. The detector was set to 370 nm excitation wavelength and a 418 nm long pass emission filter. A 1 μM solution of camptothecin in PBS was prepared and incubated at 37° C. Immediately after mixing the drug stock solution with PBS and at intervals of 5 min thereafter, 50 μL aliquots were taken out and mixed with 150 μL methanolic internal standard, 9-toluoylamidocamptothecin and either analyzed immediately or kept cold under dry ice. 150 μL of this mixture was diluted with 125 μL water and 200 μL was injected. The ratio of the peak areas corresponding to the intact lactone form of the camptothecin drug and the internal standard at a particular time was normalized to that at the time of mixing and was considered as the concentration of the intact lactone form.
For topotecan the excitation wavelength was 362 nm and the emission was observed through a 470 long wave pass filter. The stationary phase was Waters Nova-Pak C-18 150mm long column. The mobile phase consisted of 500 mL 0.1M KH2 PO4, 550 mL acetonitrile, 4.2 mL triethylamine (distilled over molecular sieves), 4.44 g sodium dioctylsulfosuccinate (DOSS), and 970 ml water. The pH was adjusted to 6.0 with H3 PO4. Internal standard solution contained 50×10^-9 g acridine from Eastman and 20×10^-3 M DOSS in methanol and was always kept cold at ≤-20° C. Next 150 μL or cold internal standard solution was mixed with 50 μL aliquot containing topotecan, centrifuged for 1 minute and the supernatant was either analyzed immediately or stored at -20° C. for analysis at a later time, within 2 hours. Samples were monitored at time points from 0 minutes, that is, immediately following dissolution, up to 72 hours.
The kinetics of lactone ring hydrolysis for free camptothecin, CMC and topotecan are shown in of FIGS. 7a, 7b and 7c. Analysis of the decay profile for camptothecin, CMC and topotecan free in PBS was accomplished using a nonlinear least squares program.

A short description of series [2]: Overall association constant by fluorescence anisotropy titration, DMPG liposomes. Format: physicochemical. Conditions: for overall association constant K, DMPG: DMPG (negatively charged, fluid phase), PBS, 37° C.; for bound drug level, DMPG: DMPG liposomes, 0.29M lipid, estimated. As for the experimental part:
While the spectral changes provide qualitative evidence that the camptothecin drugs bind the liposome membranes, fluorescence anisotropy titration, offers the most sensitive means for quantitatively assessing the extent of the binding. The fluorescence anisotropy titration was performed according to the method of Burke and Tritton, Biochemistry 24: 1768-1776 (1985).
The concentrations of free camptothecin drugs and camptothecin drugs associated with liposomes were determined at various lipid concentrations. All experiments were conducted in glass tubes pretreated with a silating agent, Surfacil, from Pearce Chemical, Rockford, Ill. The titration was conducted at camptothecin drug concentration of 1×10^-6 M in PBS at 37° C. Anisotropy values at each lipid concentration were determined within less than 30 seconds following the addition of the camptothecin drugs to the liposome suspension. The (a) values were determined for fixed drug concentration, typically 2 μM, while the lipid concentration was varied from 0 to 0.29M. By varying the lipid concentration rather than varying the drug concentration, the problem of self-association phenomenon which occurs for camptothecin drugs concentrations in excess of 10 μM is avoided. Also, the well-known phenomenon known as inner filter effect which occurs using fluorescent material at high optical densities is a is avoided.
Adsorption isotherms like those shown in FIGS. 4A and 4B were used to determine overall association constants for the camptothecin drugs. Overall association constants are defined as: […]
where [AB ] represents the concentration of the camptothecin drug bound to the vesicle membrane, [AF ] represents the concentration of free drug, and [L] represents the total lipid concentration in the liposome suspension. This equation is valid when the concentration of free lipid is approximately equal to the concentration of total lipid, that is, the concentration of free lipid is in great excess over the concentration of bound drug. Provided this concentration is satisfied, K may be determined from the inverse of the slope of a double reciprocal plot according to (Burke and Tritton, Biochemistry 24:1776, 1985). In such a plot, 1/bound fraction of the total camptothecin drug is plotted vs. 1/[lipid], with a y-intercept value of 1.
The stabilization of camptothecin drugs was determined using different lipids. Three types of lipids (and thus 3 types of membranes) were examined: fluid-phase and electroneutral L-α-dimyristoylphosphatidylcholine (DMPC); fluid-phase and negatively-charged L-α-dimyristoylphosphatidylglycerol (DMPG), and solid-phase and electroneutral L-α-distearoylphosphatidylcholine (DSPC). While DMPC and DMPG have identical chain length, the charge on their head groups differ. DMPC and DSPC have identical head groups, but DMPC has acyl chains having 14 carbons per chain, which are four carbons shorter than the DSPC, which has 18 carbons per chain. This difference of 4-carbon chain length results in DMPC being fluid-phase at 37° C. while DSPC is solid-phase. The 7 camptothecin drugs listed in Table III were combined with liposomes containing the above lipids.
FIGS. 4A and 4B show the extent of camptothecin drug binding to liposomes as a function of lipid concentration for DMPC and DMPG liposomes. DMPC liposomes were made as in Example 1, at lipid concentrations from 0 to 0.29M, using CMC, 10-hydroxycamptothecin, 10,11-methylenedioxy-camptothecin, topotecan, camptothecin, and camptothecin carboxylate sodium salt, as shown in FIG. 4B. DMPG liposomes were made as in Example 2, at lipid concentrations from 0 to 0.29M, using 9-chloro-10,11-methylenedioxycamptothecin CMC, 10,11-methylenedioxycamptothecin, camptothecin, and topotecan, 9-aminocamptothecin, as shown in FIG. 4A. The lipid concentration […] of the data using double-reciprocal plots gave identical overall association/binding constants of 100M^-1.

The values that follow come from US5552156A, “Liposomal and micellular stabilization of camptothecin drugs” (Ohio State University, priority 1995, dated 1996).

Entries after “also recorded” stand apart in the source; their conditions may differ.

In the case of `CCC1(O)C(=O)OCc2c1cc1n(c2=O)Cc2cc3cc(O)ccc3nc2-1` (stereo not drawn) [10-hydroxycamptothecin], in series [1] (free in PBS, pH 7.4, 37° C.), the “carboxylate/lactone ratio (C/L) free drug” value was 5.4 and the t1/2 free drug was determined as 23.9 min. Further, in series [2], the “overall association constant K, DMPG” value was determined as 75 M⁻¹.
For `CCC1(O)C(=O)OCc2c1cc1n(c2=O)Cc2cc3c(Cl)c4c(cc3nc2-1)OCO4` (stereo not drawn) [9-chloro-10,11-methylenedioxycamptothecin], in series [1], the “duration of stability when bound to liposomes” value is “at least 48 hours” and the “biologically active (lactone) form present after 48 hours” value (shortened to “biologically active”) is recorded as “more than 97%”. Also, in series [1] (pH 7.4, 37° C.), the “C/L drug DMPC Lip.” value is on record as ~ 0, the “t1/2 drug DMPC Lip.” value was over 72 h, the “C/L drug DMPG Lip.” value is ~ 0 and the “t1/2 drug DMPG Lip.” value is over 72 h. Besides, the “effect of liposome lysis by sonication” value in series [1] (DSPC MLVs) was “releases 9-chloro-10,11-methylenedioxycamptothecin which is then hydrolysed”. For the same molecule, in series [1] (DSPC MLVs, listed as CMC), the “effect of liposome lysis by sonication” value is “at least partially released and hydrolysed”. Moreover, the “lactone ring not hydrolysed in pH 5 DSPC liposomes” value in series [1] (DSPC MLVs, internal pH 5) is reported as “More than 80%”. In series [1] (free in PBS, pH 7.4, 37° C.), the “carboxylate/lactone ratio (C/L) free drug” value came out at 6.4, the “half-life (t1/2) of free drug in PBS” value is given as “approximately 21 min” and the t1/2 free drug amounted to 21.3 min. For the same molecule, in series [2], the “overall association constant K, DMPG” value was found to be 320 M⁻¹ and the “bound drug level, DMPG” value is on record as 99%.
In the case of `CC[C@@]1(O)C(=O)OCc2c1cc1n(c2=O)Cc2cc3c(CN(C)C)c(O)ccc3nc2-1` [topotecan], the “lactone hydrolysis when associated with liposomes” value in series [1] is “some hydrolysis at 1 hour; also recorded: stabilized to a greater degree in DMPG liposomes as compared to DMPC liposomes”. In series [1] (pH 7.4, 37° C.), the “C/L drug DMPC Lip.” value is on record as 3.4, the “t1/2 drug DMPC Lip.” value stood at 1.25 h, the “C/L drug DMPG Lip.” value was 0.42 and the “t1/2 drug DMPG Lip.” value is 1.6 h. Further, in series [1] (free in PBS, pH 7.4, 37° C.), the “carboxylate/lactone ratio (C/L) free drug” value is reported as 7.5 and the t1/2 free drug is 21.1 min. In addition, the “reduced ability to bind negatively-charged liposome membranes relative to CMC” value in series [2] (DMPG) is reported as 6 -fold. Besides, in series [2], the “overall association constant K, DMPG” value was found to be 50 M⁻¹ and the “bound drug level, DMPG” value is listed as 93%. In addition, in series [2] (DMPG compared to DMPC), the “binding preference DMPG over DMPC” value is on record as “preferentially binds negatively charged DMPG liposomes as compared to DMPC liposomes; also recorded: strong binding preference for the negatively-charged lipid DMPG”.
As to `CC[C@@]1(O)C(=O)OCc2c1cc1n(c2=O)Cc2cc3ccccc3nc2-1` [camptothecin], the “lactone ring hydrolysis at raised drug concentration” value in series [1] (2 mM, lipid to drug ratio 150, DMPC) is “no evidence of lactone ring hydrolysis was observed”. Moreover, in series [1], the “duration of stability when bound to liposomes” value was “at least 48 hours” and the “biologically active” value is “more than 97%”. Also, in series [1] (pH 7.4, 37° C.), the “C/L drug DMPC Lip.” value is ~ 0, the “t1/2 drug DMPC Lip.” value was over 72 h, the “C/L drug DMPG Lip.” value is recorded as ~ 0 and the “t1/2 drug DMPG Lip.” value was over 72 h. Further, the “C/L drug DSPC Lip.” value in series [1] (DSPC liposomes, pH 7.4, 37° C.) was ~ 3.4. For the same molecule, in series [1] (free in PBS, pH 7.4, 37° C.), the “carboxylate/lactone ratio (C/L) free drug” value is 6.8, the “half-life (t1/2) of free drug in PBS” value was 16.6 min and the t1/2 free drug turned out to be 16.6 min. Moreover, the “bound drug level, DMPG” value in series [2] is reported as 97%.
In the case of `CCC1(O)C(=O)OCc2c1cc1n(c2=O)Cc2cc3cc4c(cc3nc2-1)OCO4` (stereo not drawn) [10,11-methylenedioxycamptothecin], in series [1], the “lactone hydrolysis when associated with liposomes” value is reported as “little hydrolysis even at 48 hours” and the “biologically active” value is given as “more than 97%”. In addition, in series [1] (pH 7.4, 37° C.), the “C/L drug DMPC Lip.” value is ~ 0, the “t1/2 drug DMPC Lip.” value was over 72 h, the “C/L drug DMPG Lip.” value is ~ 0 and the “t1/2 drug DMPG Lip.” value is over 72 h. For the same molecule, in series [1] (free in PBS, pH 7.4, 37° C.), the “carboxylate/lactone ratio (C/L) free drug” value is given as 3.3, the “half-life (t1/2) of free drug in PBS” value is given as 28.7 min and the t1/2 free drug turned out to be 28.7 min. Moreover, the degraded at 1 h in series [1] (pH 7.4, free in PBS, less than 1 hour, read-out: drug hydrolyzed in less than 1 hour) was over 70%. The “drug stabilized at 5 hours” value in series [1] (sorbitan mono-oleate micelles, 5 hours) is given as 50%.
